Values of other authors, collected in patent US20100151107A1, “EXTRACTION METHOD FOR THE CLASSIFIED EXTRACTION AND SEPARATION OF VEGETABLE COMPONENT MATERIALS, AND THE APPLICATION THEREOF” (priority 2006, published 2010).

What was measured:
[1] = system: 60 different human tumour-cell lines; settings: 60 different human tumour-cell lines (leukaemia, lung cancer, large intestine, melanoma, breast cancer)
[2] = system: isolated mouse mammary gland cells; settings: MMOC-test; versus resveratrol isolated from red vine
[3] = system: healthy cells; settings: all hitherto described in-vitro experiments
[4] = rats; dose 1.000 mg xanthohumol per kg body weight
[5] = in-vitro; against osteoporosis, arteriosclerosis, diseases of the coronary vessels, heart attack and stroke

COc1cc(O)c(CC=C(C)C)c(O)c1C(=O)/C=C/c1ccc(O)cc1 [Xanthohumol, xanthohumol]
growth inhibiting and cytotoxic effect [1]: growth inhibiting and cytotoxic effect | effectiveness relative to resveratrol [2]: more than 200 fold | cytotoxic effect against healthy cells [3]: no cytotoxic effect | toxic effect [4]: no toxic effect | preventive effect [5]: preventive effect
